Activity calls are given as the source filed them. The calls are words filed in the database; no cut-off is given here.
What was measured:
[1] = Volume of distribution at steady state in cynomolgus monkey at 2 mg/kg, po or 0.5 mg/kg, iv administered as cassette dose measured after 24 hrs; format: ADME, organism-based, Macaca fascicularis; conditions: in vivo, read-out: Vdss
KATO III [2] = test: Antitumor activity against human KATO III stomach cancer cell line xenografted in po dosed SCID mouse assessed as tumor growth inhibition administered once daily for 10 days; format: functional, organism-based; conditions: dose 0.03-1 mg/kg, time 10.0 day
[3] = target: Sodium-dependent dopamine transporter (Homo sapiens, UniProt Q01959); test: Inhibition of dopamine transporter (unknown origin) at 0.1 to 1 uM; format: ADME; conditions: dose 0.1-1 µM
[4] = Inhibition of human adenosine transporter at 0.1 to 1 uM; format: ADME; conditions: dose 0.1-1 µM
[5] = target: Voltage-gated L-type calcium channel (Homo sapiens, UniProt Q13936+Q13698+Q01668+O60840); test: Inhibition of calcium channel, Type L (unknown origin) at 0.1 to 1 uM; format: protein assay; conditions: dose 0.1-1 µM
[6] = target: Muscarinic acetylcholine receptor M4 (Homo sapiens, UniProt P08173); test: Inhibition of human muscarinic M4 receptor at 0.1 to 1 uM; conditions: dose 0.1-1 µM
[7] = target: Alpha-2A adrenergic receptor (Homo sapiens, UniProt P08913); test: Inhibition of adrenergic alpha 2A receptor (unknown origin) at 0.1 to 1 uM; conditions: dose 0.1-1 µM
[8] = target: Muscarinic acetylcholine receptor M1 (Homo sapiens, UniProt P11229); test: Inhibition of human muscarinic M1 receptor at 0.1 to 1 uM; conditions: dose 0.1-1 µM
[9] = target: Muscarinic acetylcholine receptor M5 (Homo sapiens, UniProt P08912); test: Inhibition of human muscarinic M5 receptor at 0.1 to 1 uM; conditions: dose 0.1-1 µM
[10] = target: Sigma non-opioid intracellular receptor 1 (Homo sapiens, UniProt Q99720); test: Inhibition of sigma 1 receptor (unknown origin) at 0.1 to 1 uM; conditions: dose 0.1-1 µM
[11] = target: Alpha-2C adrenergic receptor (Homo sapiens, UniProt P18825); test: Inhibition of human adrenergic alpha 2C receptor at 0.1 to 1 uM; conditions: dose 0.1-1 µM
[12] = Inhibition of calcium activated potassium channel (unknown origin) at 0.1 to 1 uM; conditions: human, dose 0.1-1 µM
[13] = Volume of distribution at steady state in Sprague-Dawley rat at 2 mg/kg, po or 1 mg/kg, iv administered as cassette dose measured after 24 hrs; format: ADME, organism-based; conditions: in vivo, read-out: Vdss
[14] = target: 5-hydroxytryptamine receptor 1A (Homo sapiens, UniProt P08908); test: Inhibition of human 5HT1A receptor at 0.1 to 1 uM; conditions: dose 0.1-1 µM
[15] = Toxicity in SCID mouse xenografted with human KATO III stomach cancer cell line assessed as drug tolerance at 0.03 to 1 mg/kg, po administered once daily for 10 days; format: organism-based; conditions: in vivo, 240 h, dose 0.03-1 mg/kg, time 10 day
KATO III [16] = test: Antitumor activity against human KATO III stomach cancer cell line xenografted in SCID mouse assessed as tumor growth inhibition at 0.3 mg/kg, po administered once daily for 10 days; format: functional, organism-based; conditions: time 10.0 day
[17] = Inhibition of ATP-sensitive potassium channel (unknown origin) at 0.1 to 1 uM; conditions: human, dose 0.1-1 µM
[18] = target: Neuropeptide Y receptor type 2 (Homo sapiens, UniProt P49146); test: Inhibition of human NPY2 at 0.1 to 1 uM; conditions: dose 0.1-1 µM
CYP2B6 = CYP2B6 (Homo sapiens, UniProt P20813); test: Inhibition of CYP2B6 in human liver microsomes using bupropion as substrate substrate in presence of NADPH by LC-MS/MS analysis; format: ADME; conditions: probe bupropion
[19] = target: 5-hydroxytryptamine receptor 1D (Homo sapiens, UniProt P28221); test: Inhibition of 5HT1D receptor (unknown origin) at 0.1 to 1 uM; conditions: dose 0.1-1 µM
[20] = Half life in Sprague-Dawley rat at 2 mg/kg, po or 1 mg/kg, iv administered as cassette dose measured after 24 hrs; format: ADME, organism-based; conditions: in vivo
[21] = target: 5-hydroxytryptamine receptor 7 (Homo sapiens, UniProt P34969); test: Inhibition of human 5HT7 receptor at 0.1 to 1 uM; conditions: dose 0.1-1 µM
[22] = Inhibition of GABA chloride/TBOB site (unknown origin) at 0.1 to 1 uM; conditions: human, dose 0.1-1 µM
[23] = Half life in Beagle dog at 1 mg/kg, iv measured after 24 hrs; format: ADME, organism-based, Canis lupus familiaris; conditions: in vivo
[24] = Solubility of the compound in simulated gastric fluid; format: physicochemical
Adenosine receptor A2a = Adenosine receptor A2a (Homo sapiens, UniProt P29274); test: Inhibition of human adenosine A2A receptor at 0.1 to 1 uM; conditions: dose 0.1-1 µM
[25] = target: 5-hydroxytryptamine receptor 5A (Homo sapiens, UniProt P47898); test: Inhibition of human 5HT5A receptor at 0.1 to 1 uM; conditions: dose 0.1-1 µM
[26] = Clearance in Sprague-Dawley rat at 2 mg/kg, po or 1 mg/kg, iv administered as cassette dose measured after 24 hrs relative to hepatic blood flow; format: ADME, organism-based; conditions: in vivo
[27] = target: 5-hydroxytryptamine receptor 6 (Homo sapiens, UniProt P50406); test: Inhibition of human 5HT6 receptor at 0.1 to 1 uM; conditions: dose 0.1-1 µM
[28] = target: Sodium-dependent serotonin transporter (Homo sapiens, UniProt P31645); test: Inhibition of serotonin transporter (unknown origin) at 0.1 to 1 uM; format: ADME; conditions: dose 0.1-1 µM
CYP2C9 = CYP2C9 (Homo sapiens, UniProt P11712); test: Inhibition of CYP2C9 in human liver microsomes using diclofenac as substrate substrate in presence of NADPH by LC-MS/MS analysis; format: ADME; conditions: human, liver microsomes, probe diclofenac
D(4) dopamine receptor = D(4) dopamine receptor (Homo sapiens, UniProt P21917); test: Inhibition of human dopamine D4.4 receptor at 0.1 to 1 uM; conditions: dose 0.1-1 µM
GABA-B receptor = GABA-B receptor (Homo sapiens, UniProt Q9UBS5+O75899); test: Inhibition of GABA-B receptor (unknown origin) at 0.1 to 1 uM; format: protein-complex assay; conditions: dose 0.1-1 µM
[29] = Inhibition of human PDE4A1A at 0.1 to 1 uM; conditions: dose 0.1-1 µM
D(3) dopamine receptor = D(3) dopamine receptor (Homo sapiens, UniProt P35462); test: Inhibition of dopamine D3 receptor (unknown origin) at 0.1 to 1 uM; conditions: dose 0.1-1 µM
[30] = target: 5-hydroxytryptamine receptor 3A (Homo sapiens, UniProt P46098); test: Inhibition of 5HT3 receptor (unknown origin) at 0.1 to 1 uM; conditions: dose 0.1-1 µM
[31] = Protein binding in human plasma assessed as free fraction measured after 2 hrs by LC-MS/MS analysis; format: ADME, cell-free
[32] = Inhibition of human PKA at 0.1 to 1 uM; conditions: dose 0.1-1 µM
[33] = Inhibition of Glutamate kainate site receptor (unknown origin) at 0.1 to 1 uM; format: ADME; conditions: human, dose 0.1-1 µM
[34] = target: Delta-type opioid receptor (Homo sapiens, UniProt P41143); test: Inhibition of human delta opioid receptor at 0.1 to 1 uM; conditions: dose 0.1-1 µM
[35] = Oral bioavailability in cynomolgus monkey at 2 mg/kg administered as cassette dose measured after 24 hrs; format: ADME, organism-based, Macaca fascicularis; conditions: in vivo
Endothelin-1 receptor = Endothelin-1 receptor (Homo sapiens, UniProt P25101); test: Inhibition of human ETA receptor at 0.1 to 1 uM; conditions: dose 0.1-1 µM
[36] = target: Gamma-aminobutyric acid receptor subunit alpha-1 (Homo sapiens, UniProt P14867); test: Inhibition of GABA-A alpha1 BDZ site (unknown origin) at 0.1 to 1 uM; conditions: dose 0.1-1 µM
Gamma-aminobutyric acid receptor subunit alpha-1, sequence (P14867 whole entry): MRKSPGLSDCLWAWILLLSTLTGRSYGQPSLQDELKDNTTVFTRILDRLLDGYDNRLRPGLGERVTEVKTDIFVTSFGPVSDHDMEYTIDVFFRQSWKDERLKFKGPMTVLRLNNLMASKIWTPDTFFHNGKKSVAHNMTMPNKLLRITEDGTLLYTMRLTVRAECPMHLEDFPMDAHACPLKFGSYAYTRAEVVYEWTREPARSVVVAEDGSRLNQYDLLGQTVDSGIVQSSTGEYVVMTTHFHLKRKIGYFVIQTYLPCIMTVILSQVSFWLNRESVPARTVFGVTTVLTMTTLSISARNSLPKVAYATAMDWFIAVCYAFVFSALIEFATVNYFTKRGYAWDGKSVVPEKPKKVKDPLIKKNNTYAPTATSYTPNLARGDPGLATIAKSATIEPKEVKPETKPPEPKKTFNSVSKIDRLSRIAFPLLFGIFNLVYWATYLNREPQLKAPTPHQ

5-hydroxytryptamine receptor 7, sequence (P34969 whole entry): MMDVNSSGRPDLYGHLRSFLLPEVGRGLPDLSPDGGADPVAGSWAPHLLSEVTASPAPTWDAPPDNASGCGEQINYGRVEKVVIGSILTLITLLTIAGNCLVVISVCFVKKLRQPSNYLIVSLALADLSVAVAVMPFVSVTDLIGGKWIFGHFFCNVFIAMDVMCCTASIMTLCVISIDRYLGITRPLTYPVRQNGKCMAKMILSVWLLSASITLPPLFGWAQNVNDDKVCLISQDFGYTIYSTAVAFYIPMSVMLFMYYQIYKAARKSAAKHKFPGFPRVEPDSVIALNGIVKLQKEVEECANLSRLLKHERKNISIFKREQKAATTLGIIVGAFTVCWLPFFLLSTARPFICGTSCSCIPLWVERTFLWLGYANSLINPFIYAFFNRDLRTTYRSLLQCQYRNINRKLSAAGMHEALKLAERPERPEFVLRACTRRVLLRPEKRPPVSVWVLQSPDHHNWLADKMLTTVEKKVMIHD
Alpha-2C adrenergic receptor, sequence (P18825 whole entry): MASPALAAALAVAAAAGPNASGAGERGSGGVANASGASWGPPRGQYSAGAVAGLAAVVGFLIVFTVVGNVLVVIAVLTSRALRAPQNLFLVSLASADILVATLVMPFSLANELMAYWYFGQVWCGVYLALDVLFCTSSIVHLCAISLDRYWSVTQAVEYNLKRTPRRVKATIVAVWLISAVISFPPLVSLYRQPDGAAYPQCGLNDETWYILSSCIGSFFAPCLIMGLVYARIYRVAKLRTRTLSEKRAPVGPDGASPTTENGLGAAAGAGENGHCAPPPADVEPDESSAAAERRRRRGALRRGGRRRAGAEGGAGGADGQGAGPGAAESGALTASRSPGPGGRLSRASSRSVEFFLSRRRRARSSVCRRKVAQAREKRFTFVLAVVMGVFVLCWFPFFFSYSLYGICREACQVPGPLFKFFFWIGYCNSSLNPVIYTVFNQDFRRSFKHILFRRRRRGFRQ
Sodium-dependent serotonin transporter, sequence (P31645 whole entry): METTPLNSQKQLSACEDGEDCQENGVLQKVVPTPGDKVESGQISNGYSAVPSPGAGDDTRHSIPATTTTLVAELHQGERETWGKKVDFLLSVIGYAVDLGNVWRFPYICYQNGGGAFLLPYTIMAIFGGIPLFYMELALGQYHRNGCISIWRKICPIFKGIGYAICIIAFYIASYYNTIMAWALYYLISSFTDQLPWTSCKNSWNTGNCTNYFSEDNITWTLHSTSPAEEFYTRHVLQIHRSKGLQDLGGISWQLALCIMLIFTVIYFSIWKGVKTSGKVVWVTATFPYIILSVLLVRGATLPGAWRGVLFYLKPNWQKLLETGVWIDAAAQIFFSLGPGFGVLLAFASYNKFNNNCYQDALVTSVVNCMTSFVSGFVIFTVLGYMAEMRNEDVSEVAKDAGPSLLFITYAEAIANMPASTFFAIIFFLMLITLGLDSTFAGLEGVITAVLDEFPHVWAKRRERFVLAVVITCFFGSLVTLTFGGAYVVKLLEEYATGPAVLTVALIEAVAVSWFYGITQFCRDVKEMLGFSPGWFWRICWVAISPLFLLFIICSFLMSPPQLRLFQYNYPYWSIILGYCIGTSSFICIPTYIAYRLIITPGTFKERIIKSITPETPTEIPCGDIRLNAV
Muscarinic acetylcholine receptor M1, sequence (P11229 whole entry): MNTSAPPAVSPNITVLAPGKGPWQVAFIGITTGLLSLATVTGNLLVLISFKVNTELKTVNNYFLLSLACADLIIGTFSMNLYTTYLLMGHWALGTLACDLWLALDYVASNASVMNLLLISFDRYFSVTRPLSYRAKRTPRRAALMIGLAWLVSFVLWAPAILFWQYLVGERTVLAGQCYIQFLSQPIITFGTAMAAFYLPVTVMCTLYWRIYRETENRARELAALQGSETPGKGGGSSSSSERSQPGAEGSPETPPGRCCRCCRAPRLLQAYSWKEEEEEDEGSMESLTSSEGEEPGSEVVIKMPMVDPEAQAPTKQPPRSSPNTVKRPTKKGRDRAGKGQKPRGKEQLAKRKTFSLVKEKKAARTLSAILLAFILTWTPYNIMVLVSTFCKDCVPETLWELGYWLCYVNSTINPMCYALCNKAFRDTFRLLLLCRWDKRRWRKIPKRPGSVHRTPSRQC
5-hydroxytryptamine receptor 1A, sequence (P08908 whole entry): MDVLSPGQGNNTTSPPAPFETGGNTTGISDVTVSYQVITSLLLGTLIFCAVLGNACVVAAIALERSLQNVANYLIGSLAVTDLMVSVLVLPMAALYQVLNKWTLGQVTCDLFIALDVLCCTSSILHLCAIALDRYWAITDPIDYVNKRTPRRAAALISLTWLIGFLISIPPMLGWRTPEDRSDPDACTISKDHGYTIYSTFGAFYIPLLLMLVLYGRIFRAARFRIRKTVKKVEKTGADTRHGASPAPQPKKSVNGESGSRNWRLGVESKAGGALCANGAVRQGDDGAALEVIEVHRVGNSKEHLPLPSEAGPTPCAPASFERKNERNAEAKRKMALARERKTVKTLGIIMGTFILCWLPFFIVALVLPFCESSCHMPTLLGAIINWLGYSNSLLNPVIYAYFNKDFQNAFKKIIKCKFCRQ
5-hydroxytryptamine receptor 6, sequence (P50406 whole entry): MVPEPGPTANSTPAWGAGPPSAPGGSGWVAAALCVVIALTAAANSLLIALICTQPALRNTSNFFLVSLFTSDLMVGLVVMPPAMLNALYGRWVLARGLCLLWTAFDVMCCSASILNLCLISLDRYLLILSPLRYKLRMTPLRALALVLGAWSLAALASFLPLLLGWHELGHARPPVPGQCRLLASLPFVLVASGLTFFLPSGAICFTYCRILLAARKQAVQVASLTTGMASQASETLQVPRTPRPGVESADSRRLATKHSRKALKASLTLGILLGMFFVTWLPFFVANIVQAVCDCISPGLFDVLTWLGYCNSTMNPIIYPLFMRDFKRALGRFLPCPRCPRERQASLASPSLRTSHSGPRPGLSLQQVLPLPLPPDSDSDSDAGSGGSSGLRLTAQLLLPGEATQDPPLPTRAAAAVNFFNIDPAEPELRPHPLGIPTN
CYP2B6, sequence (P20813 whole entry): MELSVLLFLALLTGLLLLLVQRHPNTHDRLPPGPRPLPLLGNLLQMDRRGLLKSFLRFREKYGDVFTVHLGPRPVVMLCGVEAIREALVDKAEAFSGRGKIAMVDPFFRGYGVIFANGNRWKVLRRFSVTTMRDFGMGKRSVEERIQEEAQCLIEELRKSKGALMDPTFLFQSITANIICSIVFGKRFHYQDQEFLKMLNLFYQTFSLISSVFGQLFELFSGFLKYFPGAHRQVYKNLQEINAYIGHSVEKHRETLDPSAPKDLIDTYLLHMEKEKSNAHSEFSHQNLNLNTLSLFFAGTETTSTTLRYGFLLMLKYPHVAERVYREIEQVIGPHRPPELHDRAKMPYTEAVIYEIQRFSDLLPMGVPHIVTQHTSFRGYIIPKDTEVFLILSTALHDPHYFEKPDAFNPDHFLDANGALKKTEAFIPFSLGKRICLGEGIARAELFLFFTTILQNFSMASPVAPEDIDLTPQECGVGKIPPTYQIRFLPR
Endothelin-1 receptor, sequence (P25101 whole entry): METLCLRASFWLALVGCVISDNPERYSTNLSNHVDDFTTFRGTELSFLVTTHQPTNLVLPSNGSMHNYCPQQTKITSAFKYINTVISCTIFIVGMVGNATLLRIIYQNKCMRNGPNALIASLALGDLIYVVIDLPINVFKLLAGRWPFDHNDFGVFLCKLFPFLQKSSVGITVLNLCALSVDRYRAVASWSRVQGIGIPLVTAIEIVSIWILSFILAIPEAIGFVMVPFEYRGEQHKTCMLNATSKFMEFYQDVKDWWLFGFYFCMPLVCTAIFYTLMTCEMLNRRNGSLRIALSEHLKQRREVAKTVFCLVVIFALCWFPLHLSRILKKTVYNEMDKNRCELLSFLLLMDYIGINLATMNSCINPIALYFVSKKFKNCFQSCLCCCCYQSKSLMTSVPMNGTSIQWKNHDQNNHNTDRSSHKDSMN
5-hydroxytryptamine receptor 3A, sequence (P46098 whole entry): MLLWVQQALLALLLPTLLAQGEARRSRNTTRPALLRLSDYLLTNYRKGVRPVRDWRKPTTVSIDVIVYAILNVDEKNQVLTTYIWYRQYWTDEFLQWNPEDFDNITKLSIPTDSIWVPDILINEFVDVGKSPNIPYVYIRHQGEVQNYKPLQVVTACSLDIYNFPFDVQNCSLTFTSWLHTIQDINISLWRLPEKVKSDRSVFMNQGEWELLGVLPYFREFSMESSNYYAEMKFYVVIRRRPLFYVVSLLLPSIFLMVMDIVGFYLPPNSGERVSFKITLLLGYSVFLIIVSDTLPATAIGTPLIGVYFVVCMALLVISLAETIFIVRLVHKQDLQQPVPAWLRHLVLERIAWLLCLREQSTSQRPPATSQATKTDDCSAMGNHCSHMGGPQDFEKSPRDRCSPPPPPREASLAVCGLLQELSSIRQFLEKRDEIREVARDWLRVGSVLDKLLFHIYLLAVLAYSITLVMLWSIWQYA
Sigma non-opioid intracellular receptor 1, sequence (Q99720 whole entry): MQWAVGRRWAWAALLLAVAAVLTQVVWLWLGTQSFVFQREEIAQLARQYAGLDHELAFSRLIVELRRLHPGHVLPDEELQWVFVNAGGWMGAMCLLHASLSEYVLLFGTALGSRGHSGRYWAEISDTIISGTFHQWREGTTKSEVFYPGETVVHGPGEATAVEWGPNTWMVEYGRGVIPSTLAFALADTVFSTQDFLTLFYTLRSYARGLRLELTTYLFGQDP

With CCN1C(=O)N(c2c(F)c(OC)cc(OC)c2F)Cc2cnc3[nH]c(CN4CCOCC4)cc3c21 [PEMIGATINIB] the Vd [1] was 0.58 L/kg, the TGI (KATO III [2]) was “Dose-Dependent Effect” and the “inhibition (INH)” value [3] was “Not Active”. The “inhibition (INH)” value [4] was “Not Active”, the “inhibition (INH)” value [5] was “Not Active” and the “inhibition (INH)” value [6] was “Not Active”. The “inhibition (INH)” value [7] was “Not Active”, the “inhibition (INH)” value [8] was “Not Active” and the “inhibition (INH)” value [9] was “Not Active”. The “inhibition (INH)” value [10] was “Not Active”, the “inhibition (INH)” value [11] was “Not Active” and the “inhibition (INH)” value [12] was “Not Active”. The Vd [13] was 1.85 L/kg, the “inhibition (INH)” value [14] was “Not Active” and the Activity [15] was “Non-Toxic”. The TGI (KATO III [16]) was “Active”, the “inhibition (INH)” value [17] was “Not Active” and the “inhibition (INH)” value [18] was “Not Active”. For the same molecule, the IC50 (CYP2B6) was > 25 µM, the “inhibition (INH)” value [19] was “Not Active” and the half-life [20] was 4 h. The “inhibition (INH)” value [21] was “Not Active”, the “inhibition (INH)” value [22] was “Not Active” and the half-life [23] was 15.7 h. The solubility [24] was > 6 mg/mL, the “inhibition (INH)” value (Adenosine receptor A2a) was “Not Active” and the “inhibition (INH)” value [25] was “Not Active”. The CL [26] was 31%, the “inhibition (INH)” value [27] was “Not Active” and the “inhibition (INH)” value [28] was “Not Active”. The IC50 (CYP2C9) was > 25 µM, the “inhibition (INH)” value (D(4) dopamine receptor) was “Not Active” and the “inhibition (INH)” value (GABA-B receptor) was “Not Active”. For the same molecule, the “inhibition (INH)” value [29] was “Not Active”, the “inhibition (INH)” value (D(3) dopamine receptor) was “Not Active” and the “inhibition (INH)” value [30] was “Not Active”. The fraction unbound at 2 h [31] was 0.11, the “inhibition (INH)” value [32] was “Not Active” and the “inhibition (INH)” value [33] was “Not Active”. For the same molecule, the “inhibition (INH)” value [34] was “Not Active”, the bioavailability [35] was 29% and the “inhibition (INH)” value (Endothelin-1 receptor) was “Not Active”. For the same molecule, the “inhibition (INH)” value [36] was “Not Active”.
